Results from US7538220B2, “Intermediates in the preparation of homocamptothecin analogs” (University of Pittsburgh - of the Commonwealth System of …, priority 1999, dated 2009).

Columns and labels:
[1] = Lactone ring stability in human plasma by HPLC; assay type: in vitro ADME; conditions: 3 hours, 37° C., pH 7.5, 1 μM
Experimental: FIG. 13 depicts the improved stabilities of four novel homosilatecans of the current invention following incubation in PBS containing 30 mg/ml human serum albumin at 37° C. […] All the experiments of FIG. 14 were conducted in human plasma at 37° C. Plasma samples were continuously aerated by a stream of blood gas resulting in the maintenance of pH at values of 7.5±0.1.
(§1) HPLC solvents were from Fisher Scientific.
To characterize the stabilities of the novel silatecans of interest in human plasma, frozen plasma was incubated at 37° C. in order to thaw. Blood gas was bubbled through the plasma to adjust the pH close to 7.5. […] The samples were then allowed to incubate further at 37° C. […] Tubes were vortexed for 10 sec and centrifuged in a tabletop microcentrifuge at 8000 rpm for 45 sec. […] The sample was analyzed by HPLC as soon as possible. The data analysis was as described for drug in PBS only samples as described above. Blood gas was continuously bubbled through the plasma samples to pH at 7.5+/−[…].

[2] = Lactone ring stability in PBS suspensions of albumin-free red blood cells by HPLC; assay type: in vitro ADME, human; conditions: albumin-free RBC in PBS (5±1)×10^6 cell/μL, 37° C.
Experimental: FIG. 15 depicts the stabilities of four novel homosilatecans of the current invention in PBS suspensions containing physiologically-relevant concentrations [(5±1)×10^6 cell/μL] of albumin-free red blood cells. Stability characteristics were determined at 37° C. using HPLC methods.
as §1
To study the stabilities of the novel homosilatecans in the presence of physiologically relevant concentrations of red blood cells (RBC), the following experiments were performed. Packed Red blood cells obtained from the Central Kentucky Red Cross and were counted using a Coulter Cell Counter. The number of cells was adjusted to 5×10^12 Cells/L using PBS, pH 7.4 and incubated at 37° C. for 30 min. […] RBCs were incubated at 37° C. for 30 min and the pH remeasured to ensure that it was within the same range as before the assays were started. […] Aliquots of drug in DMSO were added to RBC suspensions in PBS to result in final drug concentration of 1 μM. […] The sample was analyzed on HPLC as soon as possible.

[3] = system: MDA-MB-435 tumorigenic metastatic human breast cancer cells; experiment: Cytotoxicity, sulphorrhodamine B (SRB) assay; assay type: cell-based; conditions: MDA-MB-435, 72 h, read-out: IC50 (w/o HSA)
Experimental: Cytotoxicity measurements were conducted using MDA-MB-435 tumorigenic human breast cancer cells. The cells were exposed to a range of drug concentrations for 72 hr exposure periods and then viability was assessed using a sulphorrhodamine B (SRB) assay. The SRB measures the total protein levels in the living cells. Proteins from dead cells are lysed and removed in the washing step before TCA fixation. However, it is possible that cells in the early stage of death still have their membrane integrity and therefore retain the protein contents inside. As a result, the optical density at 490 nm can sometimes be overestimated and the cytotoxicity underestimated. […] The SRB assay is now a well regarded assay and was recently approved by NCl as a standard assay for anticancer drug screening. […] Each IC50 value represents the average of three separate trials with each dosage level studied in triplicate.

[4] = Lactone ring stability in mouse blood by HPLC; conditions: for Ratio of Lactone Level Mouse/Human / underestimation of human blood lactone level by mouse blood: blood; for Ratio of Lactone Level Mouse/Human: 3 hours of incubation; for Percent Lactone in Mouse Blood after 3 Hours of Incubation: pH 7.4, 37° C.; for underestimation of human blood lactone level by mouse blood: 3 hours
Experimental: The hydrolysis kinetics of camptothecins in the presence of different blood components were determined by a quantitative C18 reversed-phase high-performance liquid chromatography (HPLC) assay modified from methodologies described previously in the literature cited above. The preparation of whole blood and fractionated blood samples was carried out as described previously. Crystallized HSA of high purity (>97%) from Sigma Chemical (St. Louis, Mo.) was used. HSA stock solutions were prepared in PBS buffer with a final pH of 7.40±0.05. HSA concentrations were determined by UV absorbance at 278 nm using an extinction coefficient of 39,800 M^−1 cm^−1 (Porter, 1992). All other agents were reagent grade and were used without further purification. High purity water provided by a Milli-Q UV PLUS purification system (Bedford, Mass.) was utilized in all experiments. HPLC solvents were from Fisher Scientific. Human plasma and red blood cells were obtained from Central Kentucky Blood Center. […] Blood from mice was collected in heparinized tubes and stored at 5-10° C. until use.
HPLC assays were performed either on a Waters Alliance 2690 HPLC system equipped with a temperature-controlled autosampler and Waters 474 scanning fluorescence detector. A second HPLC system was composed of a Waters HPLC system composed of 501 HPLC pumps, 717 Plus temperature-controlled autosampler and 470 scanning fluorescence detector. The HPLC assay procedures used for the homosilatecans are summarized below. Solvent A consisted of acetonitrile and Solvent B was 2% triethylammonium acetate, pH 5.5, with a flow rate of 1 ml/min. For DB-38 an isocratic elution was used: 33% Solvent A; 67% Solvent B; λex:345 nm and λem:518 nm. For DB-81 an isocratic elution was used: 56% Solvent A; 44% Solvent B; and λex:375 nm and λem:444 nm. For DB-90 an isocratic elution was used: 41% Solvent A; 59% Solvent B; λex:412 nm and λem:526 nm. For DB-91 an isocratic elution of 42% Solvent A, 58% Solvent B, and λex:392 nm and λem:562 nm.
To determine drug stability in whole blood, whole blood was incubated at 37° C. for 30 min and pH determined. Blood pH was adjusted to 7.4+/−0.5 using either 0.1 M KOH or 0.1 M HCl. Blood samples were incubated at 37° C. for 30 min and pH remeasured to ensure that it is within the range before an individual assay was started. Aliquots of blood (2 ml each) were removed and placed in three disposable glass test tubes and the tubes were incubated at 37° C. […] Incubation at 37° C. was continued and 150 μl aliquots were removed at different time points and added to 600 μl of cold methanol (−20° C.) in an eppendorf tube. The tube was then vortexed for 10 sec and centrifuged in a table top microcentrifuge at 8000 rpm for 45 sec. The Supernatant was removed and placed in an autosampler vial and the vial quickly added to the autosampler maintained at 4° C. The sample was analyzed immediately on the HPLC set-up. The data analysis was as described for the drug in PBS only samples.

[5] = Fluorescence anisotropy titration, equilibrium binding to DMPG small unilamellar vesicles; assay type: physicochemical; conditions: negatively charged DMPG vesicles, PBS pH 7.4, 37° C.; K values subject to 10% uncertainty
Experimental: As a consequence of the brilliant fluorescence emissions from the newly synthesized homosilatecans (a summary of the spectral parameters can be found in Table 1), the lipid bilayer adsorption isotherms summarized in FIG. 4 were relatively free from any background signal. The method of fluorescence anisotropy titration was used to construct the adsorption isotherms. The experiments were conducted at drug concentrations of 1 μM in PBS buffer (37° C.). […] Because of the potential of the lactone ring of the homosilatecans and camptothecins to hydrolyze in PBS, anisotropy values at each lipid concentration were determined immediately (approx. 1 min.) following the addition of the lactone form of each agent to the liposome suspension as to minimize any possibility of conversion to the carboxylate form. Using drug concentrations of 1 μM and long pass filters to isolate emitted light from background signal (that is, scattered exciting light and extraneous fluorescence signal resulting from the possible presence of impurities), signal levels from drugs dissolved in PBS buffer were typically 99.97% in the absence of membrane and greater than 98% in the presence of membrane. Adsorption isotherms were used to determine overall association constants for the homosilatecan, silatecan, and camptothecin drugs. Overall association constants are defined as: K=[AB]/[AF][L] where [AB] represents the concentration of bound drug, [AF] represents the concentration of free drug, and [L] represents the total lipid concentration in the vesicle suspension. This equation is valid when the concentration of free lipid is approximately equal to the concentration of total lipid (that is, the concentration of free lipid is in significant excess over the concentration of bound drug). Provided this condition is satisfied, K may be determined from the inverse of the slope of a double reciprocal plot. In such a double reciprocal plot, 1/fraction of the total drug bound is plotted vs. 1/lipid concentration, with a y-intercept value of 1 (for a system displaying binding site homogeneity). Such double-reciprocal plots for the associations of the new homosilatecans analogs (both lactone and carboxylate forms) with DMPC and DMPG small unilamellar vesicle (SUV) preparations were linear with good correlation coefficients.
The studies summarized in Table 2 examine the structural basis of homosilatecan associations for lipid bilayers. Two types of membranes were included in these studies which were conducted under near physiological conditions of pH and temperature; these membranes include fluid-phase and electroneutral L-α-dimyristoylphosphatidyl-choline (DMPC); and fluid-phase and negatively-charged L-α-dimyristoylphosphatidylglycerol (DMPG). DMPC and DMPG have identical chain length but the charges on their head groups differ.
In the studies of Table 2, binding isotherms were constructed using the method of fluorescence anisotropy titration as discussed above, and K values were determined from the slopes of the double-reciprocal plots. The K values are subject to 10% uncertainty. One of the most striking features of the data contained in Table 2 is the strong modulation which can be achieved through the creation of A,B,E-ring modified camptothecins (for example, the homosilatecans known as DB-38, DB-90, and DB-91) or B,E-ring modified camptothecins (for example, the homosilatecan known as DB-81). Homosilatecans containing either a sole substitution at the 7 position or dual substitution at the 7 and 10 positions have been created and found to display very high lipophilicities. Included in Table 2 are camptothecin compounds (topotecan and camptothecin). For DB-81, the lipophilicity for DMPC membranes relative to corresponding value for topotecan increases over 1,400-fold. Data for these agents were included to show the highly lipophilic nature of the new homocamptothecins relative to compounds such as topotecan and camptothecin. […]

Row | SMILES | % Lactone [1] | % Lactone ([2]; 3 hours) | % Lactone ([2]; 24 hours) | IC50 [3] | Ratio of Lactone Level Mouse/Human [4] | Percent Lactone in Mouse Blood after 3 Hours of Incubation [4] | KDMPG overall association constant [5] | underestimation of human blood lactone level by mouse blood [4]
1 | CCC1(O)CC(=O)OCc2c1cc1n(c2=O)Cc2c-1nc1ccc(N)cc1c2[Si](C)(C)C (racemic) [DB-38, 5-Ethyl-1,4,5,13-tetrahydro-5-hydroxy-10-amino-12-trimethylsilyl-3H,15H-oxepino[3′,4′:6,7]indolizino[1,2-b]quinoline-3,15-dione] | 40.3 ± 2.1% | 84.8 ± 1.5% | 39.4 ± 1.2% | 0.02 µM | 1.3 | 72% | 800 M⁻¹ | 
2 | CCC1(O)CC(=O)OCc2c1cc1n(c2=O)Cc2c-1nc1ccccc1c2[Si](C)(C)C(C)(C)C (racemic) [DB-81, 5-Ethyl-1,4,5,13-tetrahydro-5-hydroxy-12-tert-butyldimethylsilyl-3H,15H-oxepino[3′,4′:6,7]indolizino[1,2-b]quinoline-3,15-dione] | 85.0 ± 4.3% | 92.0 ± 0.0% | 55.8 ± 1.7% | 0.077 ± 0.013 µM | 0.9 | 80% | 18500 M⁻¹ | 6%
3 | CCC1(O)CC(=O)OCc2c1cc1n(c2=O)Cc2c-1nc1ccc(N)cc1c2[Si](C)(C)C(C)(C)C (racemic) [DB-90, 5-Ethyl-1,4,5,13-tetrahydro-5-hydroxy-10-amino-12-tert-butyldimethylsilyl-3H,15H-oxepino[3′,4′:6,7]indolizino[1,2-b]quinoline-3,15-dione] | 71.1 ± 3.5% | 85.5 ± 0.4% | 38.5 ± 1.4% | 0.073 ± 0.008 µM | 0.7 | 61% | 9300 M⁻¹ | 
4 | CCC1(O)CC(=O)OCc2c1cc1n(c2=O)Cc2c-1nc1ccc(O)cc1c2[Si](C)(C)C(C)(C)C (racemic) [DB-91, 5-Ethyl-1,4,5,13-tetrahydro-5-hydroxy-10-hydroxy-12-tert-butyldimethylsilyl-3H,15H-oxepino[3′,4′:6,7]indolizino[1,2-b]quinoline-3,15-dione] | 61.5 ± 3.9% | 88.5 ± 0.2% | 42.6 ± 2.6% | 0.115 ± 0.005 µM | 0.8 | 70% | 4300 M⁻¹ | 20%
